Measurements reported in PubChem BioAssay AID200 (DTP/NCI, 2004).
“And” between values parts separate entries of the source, which are not always exact repeats. Identical values can stand only once. Toxic doses and inconclusive results are not listed.

System: B6C3F1 mice, B16 melanoma ip, median survival T/C
Test: NCI In Vivo Anticancer Drug Screen. Data for tumor model B16 Melanoma (intraperitoneal) in B6C3F1 mice
Details: endpoint: median survival time, higher = longer survival
Experimental: The antitumor activity of compounds was measured in mice bearing transplantable tumors. Survival or tumor size were measured and the results are expressed as the measurement made in the treated group (T) divided by the measurement made in the vehicle treated control group (C). The tumor model used in this assay is B16 Melanoma (intraperitoneal) in B6C3F1 mice

[1] = dose: 6.25 mg/kg/injection, schedule: Q01DX009 (ip), vehicle: Klucel (hydroxypropylcellulose) (HPC)
[2] = dose: 12.5 mg/kg/injection, schedule: Q01DX009 (ip), vehicle: Klucel (hydroxypropylcellulose) (HPC)
[3] = dose: 6.25 mg/kg/injection, schedule: Q01DX009 (ip), vehicle: saline
[4] = dose: 25.0 mg/kg/injection, schedule: Q01DX009 (ip), vehicle: saline
[5] = dose: 50.0 mg/kg/injection, schedule: Q01DX009 (ip), vehicle: saline
[6] = dose: 12.5 mg/kg/injection, schedule: Q01DX009 (ip), vehicle: saline with Tween-80
[7] = dose: 25.0 mg/kg/injection, schedule: Q01DX009 (ip), vehicle: saline with Tween-80
[8] = dose: 50.0 mg/kg/injection, schedule: Q01DX009 (ip), vehicle: saline with Tween-80
[9] = dose: 200.0 mg/kg/injection, schedule: Q01DX009 (ip), vehicle: saline with Tween-80
[10] = dose: 20.0 mg/kg/injection, schedule: Q01DX009 (ip), vehicle: saline with Tween-80
[11] = dose: 50.0 mg/kg/injection, schedule: Q01DX009 (ip), vehicle: Klucel (hydroxypropylcellulose) (HPC)
[12] = dose: 200.0 mg/kg/injection, schedule: Q01DX009 (ip), vehicle: Klucel (hydroxypropylcellulose) (HPC)
[13] = dose: 12.5 mg/kg/injection, schedule: Q01DX009 (ip), vehicle: saline
[14] = dose: 25.0 mg/kg/injection, schedule: Q01DX009 (ip), vehicle: Klucel (hydroxypropylcellulose) (HPC)
[15] = dose: 100.0 mg/kg/injection, schedule: Q01DX009 (ip), vehicle: Klucel (hydroxypropylcellulose) (HPC)
[16] = dose: 100.0 mg/kg/injection, schedule: Q01DX009 (ip), vehicle: saline with Tween-80
[17] = dose: 400.0 mg/kg/injection, schedule: Q01DX009 (ip), vehicle: saline with Tween-80
[18] = dose: 100.0 mg/kg/injection, schedule: Q01DX009 (ip), vehicle: saline

## CC1(C)CC(=O)C(CSC(=O)c2ccccc2)C(=O)C1
dose: 1.56 mg/kg/injection, schedule: Q01DX009 (ip), vehicle: Klucel (hydroxypropylcellulose) (HPC)
  T/C: 94 % of control
dose: 3.12 mg/kg/injection, schedule: Q01DX009 (ip), vehicle: Klucel (hydroxypropylcellulose) (HPC)
  T/C: 97 % of control and 99 % of control
[1]
  T/C: 98 % of control
[2]
  T/C: 93 % of control

## CC(=O)O[C@@H]1C(=O)C=C(C)[C@@H]2[C@@H](OC(=O)C=C(C)C)[C@H]3OC(=O)C[C@H]4[C@@H](C)[C@@H](O)[C@]5(O)OC[C@]34[C@H]5[C@@]12C
dose: 1.0 mg/kg/injection, schedule: Q01DX005 (ip), vehicle: distilled water + Tween-80
  T/C: 163 % of control
dose: 2.0 mg/kg/injection, schedule: Q01DX005 (ip), vehicle: distilled water + Tween-80
  T/C: 160 % of control
dose: 4.0 mg/kg/injection, schedule: Q01DX009 (ip), vehicle: distilled water + Tween-80
  T/C: 155 % of control
dose: 8.0 mg/kg/injection, schedule: Q01DX005 (ip), vehicle: distilled water + Tween-80
  T/C: 156 % of control
dose: 8.0 mg/kg/injection, schedule: Q01DX009 (ip), vehicle: distilled water + Tween-80
  T/C: 162 % of control

## CCCCCCCCCCCCCCCC(=O)Nc1ccn(C2OC(CO)C(O)C2O)c(=O)n1 (stereo not given)
[3]
  T/C: 98 % of control
[4]
  T/C: 157 % of control
[5]
  T/C: 180 % of control

## COc1ccc(/C(C#N)=C2\OC(=O)c3ccccc32)cc1OC
dose: 3.12 mg/kg/injection, schedule: Q01DX009 (ip), vehicle: saline with Tween-80
  T/C: 95 % of control
dose: 6.25 mg/kg/injection, schedule: Q01DX009 (ip), vehicle: saline with Tween-80
  T/C: 93 % of control
[6]
  T/C: 107 % of control
[7]
  T/C: 88 % of control
[8]
  T/C: 91 % of control
[9]
  T/C: 88 % of control

## O=C/C(Cl)=C(/Cl)C(=O)O
dose: 1.25 mg/kg/injection, schedule: Q01DX009 (ip), vehicle: saline with Tween-80
  T/C: 99 % of control
dose: 2.5 mg/kg/injection, schedule: Q01DX009 (ip), vehicle: saline with Tween-80
  T/C: 86 % of control
dose: 5.0 mg/kg/injection, schedule: Q01DX009 (ip), vehicle: saline with Tween-80
  T/C: 89 % of control
dose: 10.0 mg/kg/injection, schedule: Q01DX009 (ip), vehicle: saline with Tween-80
  T/C: 92 % of control
[10]
  T/C: 102 % of control

## OCC1OC(n2cnc3c(SCc4ccccc4)ncnc32)C(O)C1O (stereo not given)
dose: 37.5 mg/kg/injection, schedule: Q01DX009 (ip), vehicle: saline with Tween-80
  T/C: 171 % of control
dose: 75.0 mg/kg/injection, schedule: Q01DX009 (ip), vehicle: saline with Tween-80
  T/C: 167 % of control
dose: 150.0 mg/kg/injection, schedule: Q01DX009 (ip), vehicle: saline with Tween-80
  T/C: 182 % of control

## COc1cc([NH-])c([NH-])cc1OC.[Cl][Pt+2][Cl]
[10]
  T/C: 100 % of control
dose: 40.0 mg/kg/injection, schedule: Q01DX009 (ip), vehicle: saline with Tween-80
  T/C: 101 % of control
dose: 80.0 mg/kg/injection, schedule: Q01DX009 (ip), vehicle: saline with Tween-80
  T/C: 112 % of control

## O=C(O)C1CCCN1C(=O)OCc1ccccc1 (stereo not given)
[11]
  T/C: 97 % of control
[12]
  T/C: 89 % of control

## COc1ccc(C(=O)C(CN(C)C)CN(C)C)cc1
dose: 1.56 mg/kg/injection, schedule: Q01DX009 (ip), vehicle: saline
  T/C: 92 % of control
dose: 3.12 mg/kg/injection, schedule: Q01DX009 (ip), vehicle: saline
  T/C: 96 % of control
[3]
  T/C: 94 % of control
[13]
  T/C: 97 % of control
[4]
  T/C: 102 % of control

## Oc1c(Cl)cc(Cl)cc1C1N2CCCCC2C2c3cccn3-c3ccccc3N21 (stereo not given)
[2]
  T/C: 101 % of control
[14]
  T/C: 98 % of control
[11]
  T/C: 104 % of control
[15]
  T/C: 98 % of control
[12]
  T/C: 87 % of control

## COc1cccc2c1C(=O)c1c(O)c3c(c(O)c1C2=O)C[C@@](O)(c1csc(N)n1)C[C@@H]3OC1CC(N)C(O)C(C)O1 (stereo not given in full)
dose: 25.0 mg/kg/injection, schedule: Q01DX001 (ip), vehicle: water
  T/C: 154 % of control

## COc1ccc(NC(=O)Oc2ccc3c(C)cc(=O)oc3c2)c(OC)c1
[7]
  T/C: 99 % of control
[8]
  T/C: 94 % of control
[16]
  T/C: 99 % of control
[9]
  T/C: 100 % of control
[17]
  T/C: 98 % of control

## O=C1CCCCCC2=NC12 (stereo not given)
[1]
  T/C: 95 % of control
[2]
  T/C: 91 % of control
[14]
  T/C: 87 % of control
[11]
  T/C: 98 % of control

## CC(N)C(=O)NC(CC(N)=O)C(=O)O (stereo not given)
[5]
  T/C: 103 % of control
[18]
  T/C: 94 % of control
dose: 200.0 mg/kg/injection, schedule: Q01DX009 (ip), vehicle: saline
  T/C: 97 % of control

## CCOC(=O)c1ccc(NC(=O)Nc2nc(C)cs2)cc1
dose: 12.5 mg/kg/injection, schedule: Q01DX009 (ip), vehicle: distilled water + Tween-80
  T/C: 120 % of control
dose: 25.0 mg/kg/injection, schedule: Q01DX009 (ip), vehicle: distilled water + Tween-80
  T/C: 120 % of control

## S=C(NCNC(=S)c1ccncc1)c1ccncc1
[8]
  T/C: 102 % of control
[16]
  T/C: 91 % of control
[9]
  T/C: 100 % of control
[17]
  T/C: 104 % of control

## C[C@]12CC[C@@H]3c4ccc(O)cc4CC[C@H]3[C@@H]1CC[C@@H]2O
[1]
  T/C: 89 % of control
[2]
  T/C: 98 % of control
[14]
  T/C: 90 % of control
[11]
  T/C: 94 % of control
[15]
  T/C: 90 % of control
[12]
  T/C: 89 % of control

## Cc1ccc(S(=O)(=O)NC(=O)OC23COCN2COC3)cc1
[6]
  T/C: 112 % of control and 113 % of control
[7]
  T/C: 108 % of control and 106 % of control
[8]
  T/C: 118 % of control
[16]
  T/C: 104 % of control
[9]
  T/C: 105 % of control
[17]
  T/C: 111 % of control and 122 % of control

## CC1OC(O[C@H]2C[C@](O)(C(C)O)Cc3c(O)c4c(c(O)c32)C(=O)c2c(O)cccc2C4=O)CC(NC=O)C1O (stereo not given in full)
dose: 0.62 mg/kg/injection, schedule: Q01DX001 (ip), vehicle: water
  T/C: 158 % of control
dose: 1.25 mg/kg/injection, schedule: Q01DX001 (ip), vehicle: water
  T/C: 185 % of control
dose: 2.5 mg/kg/injection, schedule: Q01DX001 (ip), vehicle: distilled water + Tween-80
  T/C: 288 % of control
dose: 2.5 mg/kg/injection, schedule: Q01DX001 (ip), vehicle: water
  T/C: 257 % of control
dose: 5.0 mg/kg/injection, schedule: Q01DX001 (ip), vehicle: water
  T/C: 170 % of control

## COc1cc2cc3cc4cc(OC)c(OC)cc4c(C)[n+]3cc2cc1OC (tested in a mixture with another compound)
[13]
  T/C: 106 % of control
[4]
  T/C: 100 % of control
[5]
  T/C: 100 % of control
[18]
  T/C: 90 % of control

## Cc1ccc(C(=Nc2ccccc2)N=P(c2ccccc2)(c2ccccc2)c2ccccc2)cc1
[6]
  T/C: 94 % of control
[7]
  T/C: 114 % of control
[8]
  T/C: 99 % of control

## C=C(C)C(=O)O[C@H]1CC2=C[C@@H](C[C@@]3(C)O[C@@H]3[C@H]3OC(=O)C(=C)[C@@H]31)OC2=O
dose: 3.75 mg/kg/injection, schedule: Q01DX009 (ip), vehicle: Klucel (hydroxypropylcellulose) (HPC)
  T/C: 101 % of control
dose: 7.5 mg/kg/injection, schedule: Q01DX009 (ip), vehicle: Klucel (hydroxypropylcellulose) (HPC)
  T/C: 107 % of control
dose: 15.0 mg/kg/injection, schedule: Q01DX009 (ip), vehicle: Klucel (hydroxypropylcellulose) (HPC)
  T/C: 103 % of control

## CCOC(=O)C(CC(C)C)NC(=O)C(Cc1ccc(N(CCCl)CCCl)cc1)NC(C)=O (stereo not given)
dose: 8.0 mg/kg/injection, schedule: Q01DX009 (ip), vehicle: saline with Tween-80
  T/C: 105 % of control
dose: 16.0 mg/kg/injection, schedule: Q01DX009 (ip), vehicle: saline with Tween-80
  T/C: 102 % of control
dose: 64.0 mg/kg/injection, schedule: Q01DX009 (ip), vehicle: saline with Tween-80
  T/C: 160 % of control

## CCC(C)C(=O)O[C@H]1C(=O)O[C@@H]2C[C@H]3C(C)=CC(=O)[C@@H](O)[C@]3(C)[C@H]3[C@@H](O)[C@H](O)[C@@]4(C)OC[C@]32[C@@H]14 (stereo not given in full)
dose: 1.0 mg/kg/injection, schedule: Q01DX009 (ip), vehicle: saline + alcohol
  T/C: 160 % of control

## OC1(CSc2ccccc2)CCCCC1
[6]
  T/C: 90 % of control and 105 % of control
[7]
  T/C: 93 % of control and 102 % of control
[8]
  T/C: 117 % of control and 95 % of control
[16]
  T/C: 93 % of control and 102 % of control
[9]
  T/C: 105 % of control
[17]
  T/C: 89 % of control

## C/C(=N\O)C(O)c1ccccc1 (stereo not given)
[16]
  T/C: 98 % of control
[9]
  T/C: 107 % of control
[17]
  T/C: 92 % of control
